Results published in patent publication US20200038415A1, “AMINOSTEROL COMPOSITIONS AND METHODS OF USING THE SAME FOR TREATING ERECTILE DYSFUNCTION” (Enterin, Inc., priority 2018, published 2020).
“Also recorded” adds a separate entry of the source.

Tests used:
[1] = test system: PD patients with constipation; test: Phase 2 trial Stage 1: prokinetic response to single escalating oral doses; format: in vivo, human; details: Example 1, FIG. 1A
Description: (§1) Following successful screening, all subjects underwent a 14-day run-in period where the degree of constipation was assessed through a validated daily log (Zinsmeister et al. 2013) establishing baseline CSBMs/week. Subjects with an average of <3 CSBMs/week proceeded to dosing.
(§2) Tolerability limits included diarrhea or vomiting.

[2] = test system: PD patients with constipation; test: Phase 2 trial Stage 2: bowel function under daily oral dosing (fixed dose, randomized period, wash-out); format: in vivo, human; details: Stage 2 fixed dose
Description: as §1
(§3) In Stage 2, 34 patients were evaluated.
The primary efficacy outcome variable was whether or not a subject was a “success” or “failure”. This is an endpoint based on subject diary entries for the “fixed dose” period prior to the endpoint assessment defined as average complete stool frequency increase by 1 or more over baseline, or 3 or more complete spontaneous stools/week. The subject was deemed a “success” if s/he met one or more of the criteria listed above, otherwise the subject was deemed a “failure”. The primary analysis was based on all subjects with a baseline assessment and an assessment at the end of the “fixed-dose” period and was a comparison of the proportion of successes with 0.10 (the null hypothesis corresponding to no treatment effect).
The proportion of subjects for whom the drug was a success was estimated with a binomial point estimate and corresponding 95% confidence interval. A secondary analysis compared the proportions of subjects who are deemed a success at the end of the randomized fixed-dose period between those randomized to the squalamine (ENT-01) arm and those randomized to the placebo arm. A Fisher's exact test was used to compare the proportions of subjects who were deemed a success at the end of randomization period between the two randomized arms

[3] = test system: PD patients with constipation; test: Safety and adverse event profile, Stage 1; format: in vivo, human
Excerpt: as §2

[4] = test system: PD patients with constipation; test: Safety and adverse event profile, Stage 2; format: in vivo, human
Description: as §3

[5] = test system: PD patients with constipation; test: Safety and adverse event profile, Stage 1 and 2 combined (44 dosed); format: in vivo, human
Description: Fifty patients were enrolled and 44 were dosed. In Stage 1, 10 patients were dosed, 1 (10%) withdrew prior to completion and 9 (90%) completed dosing. In stage 2, 6 (15%) patients had ≥3 CSBM/week at the end of the run-in period and were excluded, 34 patients were dosed and bowel response was assessable in 31 (91%). Two patients (5.8%) were terminated prior to completion because of recurrent dizziness, and 3 others withdrew during dosing (8.8%): 2 because of diarrhea and 1 because of holiday. Fifteen patients were randomized.

[6] = test system: PD patients with constipation; test: Circadian rhythm of wrist skin temperature; format: in vivo, human; details: for circadian rhythm of skin temperature: markers of healthy circadian function (IS, RA, CFI, IV): fixed dose vs baseline, 12 evaluable patients
Description: (6) I-Button Temperature Assessment. The I-Button is a small, rugged self-sufficient system that measures temperature and records the results in a protected memory section. The Thermochron I-Button DS1921H (Maxim Integrated, Dallas, Tex.) was used for skin temperature measurement. I-Buttons were programmed to sample every 10 mins., and attached to a double-sided cotton sport wrist band using Velcro, with the sensor face of the I-Button placed over the inside of the wrist, on the radial artery of the dominant hand. Subjects removed and replaced the data logger when necessary (i.e., to have a bath or shower). The value of skin temperature assessment in sleep research is that the endogenous skin warming resulting from increased skin blood flow is functionally linked to sleep propensity. From the collected data, the mesor, amplitude, acrophase (time of peak temperature), Rayleight test (an index of interdaily stability), mean waveforms are calculated.);
Assessments were made at baseline and at the end of the fixed dose and washout periods. Circadian system status was evaluated by continuously monitoring wrist skin temperature (Thermochron iButton DS1921H; Maxim, Dallas) following published procedures (Sarabia et al. 2008).
Circadian rhythm of skin temperature was evaluable in 12 patients (i.e., those who had recordings that extended from baseline through washout). Circadian system functionality was evaluated by continuously monitoring wrist skin temperature using a temperature sensor (Thermochron iButton DS1921H; Maxim, Dallas, Tex.) (Sarabia et al. 2008). […]
Briefly, this analysis includes the following parameters: (i) the inter-daily stability (the constancy of 24-hour rhythmic pattern over days, IS); (ii) intra-daily variability (rhythm fragmentation, IV); (iii) average of 10-minute intervals for the 10 hours with the minimum temperature (L10); (iv) average of 10-minute intervals for the 5 hours with the maximum temperature (M5) and the relative amplitude (RA), which was determined by the difference between M5 and L10, divided by the sum of both. […]

[7] = Preclinical oral bioavailability and intestinal absorption in rats; format: in vivo; details: oral radioactive ENT-01, portal blood concentrations
Solubility in water = format: physicochemical; details: phosphate salt

## CC(C)[C@@H](CC[C@@H](C)[C@H]1CC[C@H]2[C@@H]3[C@H](O)C[C@H]4C[C@@H](NCCCNCCCCN)CC[C@]4(C)[C@H]3CC[C@]12C)OS(=O)(=O)O (single isomer, unassigned) [squalamine (ENT-01), squalamine]
[1]
  subjects responded with improved bowel function: 80%
[2]; n=34, baseline 1.2 (0.90)
  CSBM, weekly average (mean, SD): 3.8 /week
[2]; n=34, baseline 2.6 (1.45)
  SBM, weekly average (mean, SD): 4.5 /week
[2]; baseline 1.8 (1.92)
  Suppository use / rescue medication, weekly average (mean, SD): 0.3 /week
[2]; scale 1-7, baseline 2.7 (1.20), listed as aminosterol
  Consistency, Bristol stool scale (mean, SD): 4.1
[2]; scale 1-7, baseline 3.2 (0.73), listed as aminosterol
  Ease of passage, Ease of evacuation scale (mean, SD): 3.7
[3]; Stage 1, 4/10 patients
  diarrhea, patients: 40%
  nausea, patients: 40%
[3]; Stage 1, share of AEs
  AEs confined to the GI tract: 88%
[4]; Stage 2
  patients who withdrew during dosing because of diarrhea: 2 patients
[4]; Stage 2, 15/34 patients
  diarrhea, patients: 44%
[4]; Stage 2, 34 dosed
  Abdominal pain, Mild: 4 n
  Abdominal pain, Moderate: 2 n
  Blood in urine, Mild: 0 n
  Blood in urine, Moderate: 0 n
  Diarrhea, Mild: 12 n
  Diarrhea, Moderate: 2 n
  Diarrhea, Severe: 1 n
  Difficulty falling asleep, Mild: 1 n
  Difficulty falling asleep, Moderate: 0 n
  Dizziness, Mild: 7 n
  Dizziness, Moderate: 1 n
  Eye infection, Mild: 1 n
  Eye infection, Moderate: 0 n
  Flatulence, Mild: 1 n
  Flatulence, Moderate: 0 n
  Headache, Mild: 3 n
  Headache, Moderate: 0 n
  Increased urinary frequency, Mild: 2 n
  Increased urinary frequency, Moderate: 0 n
  Loss of appetite, Mild: 0 n
  Loss of appetite, Moderate: 0 n
  Nausea, Mild: 18 n
  Nausea, Moderate: 1 n
  Skin lesions-rash, Mild: 3 n
  Skin lesions-rash, Moderate: 0 n
  Urinary retention, Mild: 1 n
  Urinary retention, Moderate: 0 n
  Urinary tract infection, Mild: 1 n
  Urinary tract infection, Moderate: 2 n
  Vomiting, Mild: 2 n
  Vomiting, Moderate: 0 n
  Worsening acid reflux, Mild: 4 n
  Worsening acid reflux, Moderate: 0 n
  Worsening hemorrhoid, Mild: 1 n
  Worsening hemorrhoid, Moderate: 0 n
[4]; Stage 2, share of AEs
  AEs confined to the GI tract: 63%
[4]; Stage 2, Unrelated to ENT-01
  Lower GI bleed, Severe: 1 n
[4]; during the withdrawal period, considered unrelated to study medication
  lower GI bleed (Serious adverse event, SAE): One patient
[5]; 1/44 patients
  worsening of hemorrhoids, patients: 2.2%
[5]; 2/44 patients
  worsening of acid reflux, patients: 4.5%
[5]; 3/44 patients
  flatulence, patients: 6.8%
  vomiting, patients: 6.8%
[5]; 8/44 patients
  dizziness, patients: 18%
[5]; 11/44 patients
  abdominal pain, patients: 32%
[5]; in vivo
  outcome of all other AEs: resolved spontaneously without discontinuation
[6]
  circadian rhythm of skin temperature: markers of healthy circadian function (IS, RA, CFI, IV): significant positive impact; also recorded: improved all markers of healthy circadian function
[6]; listed as Aminosterol
  circadian rhythm of skin temperature: markers of healthy circadian function (IS, RA, CFI, IV): improved all markers of healthy circadian function
[6]; wash-out period
  circadian parameters during wash-out (IS, CFI): improvement persisted for several of these circadian parameters
[7]
  absorption from the intestine: low
Solubility in water; neutral pH
  solubility in water: weakly soluble
Solubility in water; pH<3.5 (the pH of gastric fluid)
  solubility in water: readily dissolves
